The subject of this assay is Ramos cells. Briefly: Cytotoxicity in Ramos cells. Type of assay: cell-based. The settings on record: read-out: Ramos Cell EC50. The protocol: Exemplary compounds described in above Examples were tested for activity against F1F0-ATPase by measuring the ability of the compounds to inhibit ATP synthesis. In addition, the compounds were assessed for cytotoxicity in Ramos cells. Inhibition of F1F0-ATPase activity in synthesizing ATP and cytotoxicity in Ramos cells were measured according to the procedures described in K. M. Johnson et al. Chemistry & Biology 2005, 12, 485-496.

This note sets out measurements from patent publication US9914706B2, “N-substituted pyrazolyl guanidine F1F0-ATPase inhibitors and therapeutic uses thereof” (Lycera Corporation, priority 2013, dated 2018).

The structures appear in SMILES notation. Read-outs that look alike come from different tables or passages of the source.

Usually EC50 stands for the concentration needed to bring the measured effect to its halfway point. As to `O=C(/N=C(/Nc1cc(F)cc(Cl)c1)Nc1cc(C(F)(F)F)nn1CC(O)CO)c1cccc(Cl)c1` (single isomer, unassigned) [Compound A-10], the EC50 (Homo sapiens) was below 10 µM.
On to `O=C(/N=C(/Nc1cc(F)cc(Cl)c1)Nc1cc(C(F)(F)F)nn1CC(O)CO)c1cccc(Cl)c1` (single isomer, unassigned) [Compound A-11], for which the EC50 was below 10 µM.
For the compound `O=C(/N=C(/Nc1cc(F)cc(Cl)c1)Nc1cc(C(F)(F)F)nn1CCO)c1ccc(C(F)(F)F)cc1` [Compound A-1], where the note is “Homo sapiens”, the EC50 is below 10 µM.
`N#CCCn1nc(C(F)(F)F)cc1N/C(=N\C(=O)c1ccc(C(F)(F)F)cc1)Nc1cc(F)cc(Cl)c1` [Compound A-2]: the EC50 (Homo sapiens) was below 10 µM.
Same read-out and setting: the figure for `CC(O)Cn1nc(C(F)(F)F)cc1N/C(=N\C(=O)c1ccc(C(F)(F)F)cc1)Nc1cc(F)cc(Cl)c1` (stereo not shown) [Compound A-3] is below 10 µM.
The same measure, in the same setting: the figure for `CCOC(=O)Cn1nc(C(F)(F)F)cc1N/C(=N\C(=O)c1ccc(C(F)(F)F)cc1)Nc1cc(F)cc(Cl)c1` [Compound A-4] is below 10 µM; for `O=C(O)Cn1nc(C(F)(F)F)cc1N/C(=N\C(=O)c1ccc(C(F)(F)F)cc1)Nc1cc(F)cc(Cl)c1` [Compound A-5] it is below 10 µM.
Regarding `NC(=O)Cn1nc(C(F)(F)F)cc1N/C(=N\C(=O)c1ccc(C(F)(F)F)cc1)Nc1cc(F)cc(Cl)c1` [Compound A-6], under “Homo sapiens”, the EC50 was below 10 µM.
Turning to `Cc1c(C(F)(F)F)nn(CCO)c1N/C(=N\C(=O)c1ccc(C(F)(F)F)cc1)Nc1cc(F)cc(Cl)c1` [Compound A-7], the EC50 (Homo sapiens) is below 10 µM.
As for `COc1ccc(C(=O)/N=C(/Nc2cccc(Cl)c2)Nc2cc(C(F)(F)F)nn2CCO)cc1` [Compound A-8], the EC50 (Homo sapiens) was below 10 µM.
Consider `COc1ccc(C(=O)/N=C(/Nc2cccc(C(F)(F)F)c2)Nc2cc(C(F)(F)F)nn2CCO)cc1` [Compound A-9], for which, under “Homo sapiens”, the EC50 is below 10 µM.
Take `C=CCn1nc(C(F)(F)F)cc1N/C(=N\C(=O)c1cccc(Cl)c1)Nc1cc(F)cc(Cl)c1` [Compound A-12]: under “Homo sapiens”, the EC50 was below 10 µM.
With `O=C(/N=C(/Nc1cc(F)cc(Cl)c1)Nc1cc(C(F)(F)F)nn1-c1ccccc1)c1ccc(Cl)cc1` [Compound A-13], where the note is “Homo sapiens”, the EC50 is below 10 µM.
As to `O=C(/N=C(/Nc1cccc(Cl)c1)Nc1cc(C(F)(F)F)nn1-c1ccccc1)c1ccc(Cl)cc1` [Compound A-14], the EC50 (Homo sapiens) is below 10 µM.
`O=C(/N=C(/Nc1cccc(C(F)(F)F)c1)Nc1cc(C(F)(F)F)nn1-c1ccccc1)c1ccc(Cl)cc1` [Compound A-15]: the EC50 (Homo sapiens) is below 10 µM.
For `O=C(/N=C(/Nc1cc(F)cc(Cl)c1)Nc1cc(C(F)(F)F)nn1-c1ccc(F)cc1)c1ccc(Cl)cc1` [Compound A-16], for the setting “Homo sapiens”, the EC50 is below 10 µM.
In the case of `O=C(/N=C(/Nc1cccc(Cl)c1)Nc1cc(C(F)(F)F)nn1-c1ccc(F)cc1)c1ccc(Cl)cc1` [Compound A-17], the EC50 (Homo sapiens) is below 10 µM.
For the compound `O=C(/N=C(/Nc1cccc(C(F)(F)F)c1)Nc1cc(C(F)(F)F)nn1-c1ccc(F)cc1)c1ccc(Cl)cc1` [Compound A-18], the EC50 (Homo sapiens) was below 10 µM.
Same read-out and setting: the figure for `O=C(/N=C(/Nc1cc(F)cc(Cl)c1)Nc1cc(C(F)(F)F)nn1-c1ccc(F)cc1)c1cccc(Cl)c1` [Compound A-19] is below 10 µM; for `O=C(/N=C(/Nc1cc(F)cc(Cl)c1)Nc1cc(C(F)(F)F)nn1-c1cccc(Cl)c1)c1cccc(Cl)c1` [Compound A-20] it is below 10 µM; for `O=C(/N=C(/Nc1cc(F)cc(Cl)c1)Nc1cc(C(F)(F)F)nn1-c1cccc(Cl)c1)c1ccc(C(F)(F)F)cc1` [Compound A-21] it is below 10 µM.
Regarding `O=C(/N=C(/Nc1cccc(Cl)c1F)Nc1cc(C(F)(F)F)nn1-c1cccc(Cl)c1)c1ccc(F)c(F)c1` [Compound A-22], for the setting “Homo sapiens”, the EC50 was below 10 µM.
Turning to `Cc1c(C(F)(F)F)nn(-c2ccc(F)cc2)c1N/C(=N\C(=O)c1cccc(Cl)c1)Nc1cc(F)cc(Cl)c1` [Compound A-23], the EC50 (Homo sapiens) is below 10 µM.
Still for that read-out and setting: the figure for `Cc1c(C(F)(F)F)nn(-c2ccc(F)cc2)c1N/C(=N\C(=O)c1ccc(C(F)(F)F)cc1)Nc1cc(F)cc(Cl)c1` [Compound A-24] is below 10 µM; for `Cc1c(C(F)(F)F)nn(-c2ccc(F)cc2)c1N/C(=N\C(=O)c1ccc(F)c(F)c1)Nc1cccc(Cl)c1F` [Compound A-25] it is below 10 µM; for `O=C(/N=C(/Nc1cc(F)cc(Cl)c1)Nc1cc(C(F)(F)F)nn1C1CCCC1)c1cccc(Cl)c1` [Compound A-26] it is below 10 µM.
Turning to `O=C(/N=C(/Nc1cc(F)cc(Cl)c1)Nc1cc(C(F)(F)F)nn1C1CCCCC1)c1cccc(Cl)c1` [Compound A-27], the EC50 (Homo sapiens) was below 10 µM.
`O=C(/N=C(/Nc1cc(F)cc(Cl)c1)Nc1cc(C(F)(F)F)nn1C1CCCCC1)c1ccc(F)c(F)c1` [Compound A-28]: where the note is “Homo sapiens”, the EC50 was below 10 µM.
Still for that read-out and setting: the figure for `O=C(/N=C(/Nc1cc(F)cc(Cl)c1)Nc1ccnn1-c1ccccc1)c1cccc(Cl)c1` [Compound A-29] is below 10 µM; for `O=C(/N=C(/Nc1cc(F)cc(Cl)c1)Nc1ccnn1-c1ccccc1)c1ccc(F)c(F)c1` [Compound A-30] it is below 10 µM.
For `COc1cc(OC)cc(-n2nc(C(F)(F)F)cc2N/C(=N\C(=O)c2ccc(F)c(F)c2)Nc2cc(F)cc(Cl)c2)c1` [Compound A-31], under “Homo sapiens”, the 50% effective concentration (EC50) is below 10 µM.
With `O=C(/N=C(/Nc1cc(F)cc(Cl)c1)Nc1cc(C(F)(F)F)nn1-c1cccnc1)c1cccc(Cl)c1` [Compound A-32], the EC50 (Homo sapiens) is below 10 µM.
With `O=C(/N=C(/Nc1cc(F)cc(Cl)c1)Nc1cc(C(F)(F)F)nn1C1CCCC1)c1ccc(F)c(F)c1` [Compound A-33], the EC50 (Homo sapiens) is below 10 µM.
Consider `COc1cc(O)cc(-n2nc(C(F)(F)F)cc2N/C(=N\C(=O)c2ccc(F)c(F)c2)Nc2cc(F)cc(Cl)c2)c1` [Compound A-34], for which the EC50 (Homo sapiens) is below 10 µM.
Consider `O=C(/N=C(/Nc1cc(F)cc(Cl)c1)Nc1cc(C(F)(F)F)nn1-c1cc(O)cc(O)c1)c1ccc(F)c(F)c1` [Compound A-35], for which the EC50 (Homo sapiens) is below 10 µM.
Turning to `O=C(/N=C(/Nc1cc(F)cc(Cl)c1)Nc1cc(C(F)(F)F)nn1C1CCOCC1)c1cccc(Cl)c1` [Compound A-36], the EC50 (Homo sapiens) was below 10 µM.
The same measure, in the same setting: the figure for `CS(=O)(=O)N1CCC(n2nc(C(F)(F)F)cc2N/C(=N\C(=O)c2cccc(Cl)c2)Nc2cc(F)cc(Cl)c2)CC1` [Compound A-37] is below 10 µM; for `COC(=O)N1CCC(n2nc(C(F)(F)F)cc2N/C(=N\C(=O)c2cccc(Cl)c2)Nc2cc(F)cc(Cl)c2)CC1` [Compound A-38] it is below 10 µM; for `O=C(/N=C(/Nc1cc(F)cc(Cl)c1)Nc1cc(C(F)(F)F)nn1C1CCCC1)c1cc(F)c(Cl)cc1Cl` [Compound A-39] it is below 10 µM.
As to `O=C(/N=C(/Nc1cc(F)cc(Cl)c1)Nc1cc(C(F)(F)F)nn1C1CCCC1)c1cc(F)c(Cl)cc1F` [Compound A-40], the EC50 (Homo sapiens) was below 10 µM.
Regarding `Cc1cc(Cl)ccc1C(=O)/N=C(/Nc1cc(F)cc(Cl)c1)Nc1cc(C(F)(F)F)nn1C1CCCC1` [Compound A-41], where the note is “Homo sapiens”, the EC50 is below 10 µM.
For `O=C(/N=C(/Nc1cc(F)cc(Cl)c1)Nc1cc(C(F)(F)F)nn1C1CCCC1)c1ccc(Cl)cc1F` [Compound A-42], the EC50 (Homo sapiens) is below 10 µM.
The same measure, in the same setting: the same measure for `Cc1c(Cl)cccc1C(=O)/N=C(/Nc1cc(F)cc(Cl)c1)Nc1cc(C(F)(F)F)nn1C1CCCC1` [Compound A-43]: below 10 µM; for `O=C(/N=C(/Nc1cc(F)cc(Cl)c1)Nc1cc(C(F)(F)F)nn1C1CCCC1)c1cccc(Cl)c1F` [Compound A-44]: below 10 µM.
The same measure, in the same setting: the same measure for `O=C(/N=C(/Nc1cc(F)cc(Cl)c1)Nc1cc(C(F)(F)F)nn1C1CCCC1)c1ccc(Cl)c(F)c1` [Compound A-45]: below 10 µM; for `O=C(/N=C(/Nc1cc(F)cc(Cl)c1)Nc1cc(C(F)(F)F)nn1C1CCCC1)c1ccc(Cl)cc1Cl` [Compound A-46]: below 10 µM.
On to `Cc1cc(F)ccc1C(=O)/N=C(/Nc1cc(F)cc(Cl)c1)Nc1cc(C(F)(F)F)nn1C1CCCC1` [Compound A-47], for which the concentration giving a half-maximal response (EC50) (Homo sapiens) was below 10 µM.
Take `O=C(/N=C(/Nc1cc(F)cc(Cl)c1)Nc1cc(C(F)(F)F)nn1C1CCCC1)c1c(F)cccc1F` [Compound A-48]: the EC50 (Homo sapiens) is below 10 µM.
On the same count and under the same terms, the same measure for `COc1cccc(C(=O)/N=C(/Nc2cc(F)cc(Cl)c2)Nc2cc(C(F)(F)F)nn2C2CCCC2)c1` [Compound A-49]: below 10 µM.
In the case of `O=C(/N=C(/Nc1cc(F)cc(Cl)c1)Nc1cc(C(F)(F)F)nn1C1CCCC1)c1cccc(F)c1` [Compound A-50], the EC50 (Homo sapiens) is below 10 µM.
On to `N#Cc1ccc(C(=O)/N=C(/Nc2cc(F)cc(Cl)c2)Nc2cc(C(F)(F)F)nn2C2CCCC2)cc1` [Compound A-51], for which the EC50 (Homo sapiens) was below 10 µM.
Regarding `N#Cc1ccc(C(=O)/N=C(/Nc2cccc(Cl)c2)Nc2cc(C(F)(F)F)nn2C2CCCC2)cc1` [Compound A-52], the EC50 (Homo sapiens) is below 10 µM.
With `O=C(/N=C(/Nc1cccc(Cl)c1)Nc1cc(C(F)(F)F)nn1C1CCCC1)c1ccc(Cl)cc1` [Compound A-53], where the note is “Homo sapiens”, the EC50 was below 10 µM.
`N#Cc1cccc(C(=O)/N=C(/Nc2cc(F)cc(Cl)c2)Nc2cc(C(F)(F)F)nn2C2CCCC2)c1` [Compound A-54]: the EC50 (Homo sapiens) is below 10 µM.
With `N#Cc1cccc(C(=O)/N=C(/Nc2cccc(Cl)c2)Nc2cc(C(F)(F)F)nn2C2CCCC2)c1` [Compound A-55], the EC50 (Homo sapiens) is below 10 µM.
`O=C(/N=C(/Nc1cc(F)cc(Cl)c1)Nc1cc(C(F)(F)F)nn1C1CCCC1)c1ccccc1Cl` [Compound A-56]: the EC50 (Homo sapiens) is below 10 µM.
Turning to `O=C(/N=C(/Nc1cccc(Cl)c1)Nc1cc(C(F)(F)F)nn1C1CCCC1)c1ccccc1Cl` [Compound A-57], under “Homo sapiens”, the EC50 was below 10 µM.
For the compound `O=C(N=C(Nc1cc(F)cc(Cl)c1)Nc1cc(C(F)(F)F)nn1C1CCCC1)c1ccc(Cl)cc1` [Compound A-58, 4-chloro-N-(((3-chloro-5-fluorophenyl)amino)((1-cyclopentyl-3-(trifluoromethyl)-1H-pyrazol-5-yl)amino)methylene)benzamide], the EC50 (Homo sapiens) was below 10 µM.
